Patent US20240216514A1, “NOVEL ANTITUMOR COMPOUNDS AND RELATED METHODS OF MANUFACTURE AND USE” (KLOTHO THERAPEUTICS, INC., priority 2021, published 2024)

Assays:
[1] = system: H929; test: Tumor cell growth inhibition, CellTiter-Glo viability, H929; format: cell-based; conditions: H929, Bone Marrow; 72 hours
Experimental: (§1) To support the potential of compounds of the invention as antitumor agents, their ability to inhibit tumor cell growth across a range of cancer types was evaluated, compared to cisplatin (See FIGS. 3A-3C and FIGS. 4A-4C). Cancer cells were seeded at optimized density on 384-well plates in appropriate media for 24 hours in triplicate for each test article. Titrated compounds or cisplatin were added to cultures for 72 hours with 3-fold dilutions totaling 9 concentrations starting from 30 uM for compounds or 50 uM for cisplatin (see FIGS. 3A-3C). Cell viability was then determined by CellTiter-Glo® Luminescent Cell Viability Assay from Promega, Madison Wisconsin. A dose response curve (see FIGS. 4A-4C) was fitted from luminance activity and the IC50 for each test article was calculated using a four-parameter variable slope in GraphPad Prism version 8.0.0 for Windows, GraphPad Software, San Diego, California USA, www.graphpad.com. Conjugates were more cytotoxic to cancer cells compared to cisplatin alone, some were particularly noteworthy in colon cancer (HCT-15), prostate cancer (PC-3), and breast cancer (MCF-7) cells compared to cisplatin (see, also, Table 1, below).

[2] = system: MCF-7; test: Tumor cell growth inhibition, CellTiter-Glo viability, MCF-7; format: cell-based; conditions: MCF-7, Breast; 72 hours
Experimental: as §1

[3] = system: MDA-MB-231; test: Tumor cell growth inhibition, CellTiter-Glo viability, MDA-MB-231; format: cell-based; conditions: MDA-MB-231, Breast; 72 hours
Experimental: as §1

[4] = system: Hela; test: Tumor cell growth inhibition, CellTiter-Glo viability, Hela; format: cell-based; conditions: Cervical, 72 hours
Experimental: as §1

[5] = system: HCT-15; test: Tumor cell growth inhibition, CellTiter-Glo viability, HCT-15; format: cell-based; conditions: HCT-15, Colon; 72 hours
Experimental: as §1

[6] = system: Huh-7; test: Tumor cell growth inhibition, CellTiter-Glo viability, Huh-7; format: cell-based; conditions: Huh-7, Liver; 72 hours
Experimental: as §1

[7] = system: HepG2-PM4; test: Tumor cell growth inhibition, CellTiter-Glo viability, HepG2-PM4; format: cell-based; conditions: HepG2-PM4, Liver; 72 hours
Experimental: as §1

[8] = system: LNCap; test: Tumor cell growth inhibition, CellTiter-Glo viability, LNCap; format: cell-based; conditions: Prostate, 72 hours
Experimental: as §1

[9] = system: PC-3; test: Tumor cell growth inhibition, CellTiter-Glo viability, PC-3; format: cell-based; conditions: PC-3, Prostate; 72 hours
Experimental: as §1

[10] = target: HDAC8 (Homo sapiens, UniProt Q9BY41); conditions: cited from earlier work
HDAC8, sequence (Q9BY41 whole entry): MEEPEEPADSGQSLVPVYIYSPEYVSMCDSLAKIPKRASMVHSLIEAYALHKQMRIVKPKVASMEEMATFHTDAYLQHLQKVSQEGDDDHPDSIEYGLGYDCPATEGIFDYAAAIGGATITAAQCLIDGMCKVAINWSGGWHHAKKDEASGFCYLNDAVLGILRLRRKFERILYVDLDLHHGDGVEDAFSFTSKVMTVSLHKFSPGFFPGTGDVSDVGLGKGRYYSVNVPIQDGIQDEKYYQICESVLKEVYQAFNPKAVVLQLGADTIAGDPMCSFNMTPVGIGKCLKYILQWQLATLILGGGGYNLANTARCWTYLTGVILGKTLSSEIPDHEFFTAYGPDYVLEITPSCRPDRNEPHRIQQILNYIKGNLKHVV

[11] = Chemoprotection against cisplatin-induced myelotoxicity; conditions: preliminary results
From the text: Accordingly, by combining PTBA or its analogs with cisplatin through chemical conjugation, not only will the conjugate drug have the potential to act as a synergistic anti-cancer drug combination in its own right, but PTBA and its analogs will also provide for chemoprotection against nephrotoxicity during cancer therapy. […] By reducing adverse side effects, this chemoprotective characteristic of PTBA and its analogs, co-administered as a chemical conjugate with cisplatin, has the potential to increase drug tolerability, to permit uninterrupted treatment schedules, and to eliminate the need to reduce drug doses.

[12] = system: nephrotoxin-induced and ischemia/reperfusion-induced kidney injury; conditions: rodents; cited from earlier work

For N.N.[Cl][Pt][Cl] [Cisplatin, cisdiamminedichloroplatinum [II]], the IC50 [1] was 2.35 µM, the IC50 [2] was 2.25 µM and the IC50 [3] was 2.85 µM. The IC50 [4] was 12.3 µM, the IC50 [5] was 24.3 µM and the IC50 [6] was 6.47 µM. For the same compound, the IC50 [7] was 14 µM, the IC50 [8] was 10.9 µM and the IC50 [9] was 22 µM.

In the case of Trichostatin A, the “Concentration that completely inhibits HDAC8 activity” value [10] is given as 5 µM.

For O=C(O)CCCSc1ccccc1 [PTBA, 4-(phenylthio)butanoic acid], the “Chemoprotective effect against cisplatin-induced myelotoxicity” value [11] is given as “chemoprotective effect” and the “Recovery of kidney function after AKI” value [12] is given as “significantly accelerate recovery of kidney function”.

For O=C(CCCCCCC(=O)Nc1ccccc1)NO [Vorinostat, suberoylanilide hydroxamic acid], the “Inhibition of HDAC8 (potency range)” value [10] is given as “micromolar range”.
